± gives the expanded uncertainty stated by the source.
Conditions: Liquid

CCCCOC(C)=O [butyl ethanoate]
Conditions	mass density [kg/m3]
338.15 K, 35000 kPa	870.1 ± 7.3
343.15 K, 100 kPa	829.5 ± 3.2
343.15 K, 1000 kPa	830.5 ± 3.3
343.15 K, 2000 kPa	831.7 ± 3.4
343.15 K, 3000 kPa	832.9 ± 3.5
343.15 K, 3100 kPa	833 ± 3.5
343.15 K, 5000 kPa	835.2 ± 3.7
343.15 K, 10000 kPa	840.7 ± 4.3
343.15 K, 15000 kPa	845.7 ± 4.9
343.15 K, 20000 kPa	850.5 ± 5.5
343.15 K, 25000 kPa	855.1 ± 6.1
343.15 K, 30000 kPa	860.7 ± 6.7
343.15 K, 35000 kPa	866.3 ± 7.3
348.15 K, 100 kPa	824.4 ± 3.2
348.15 K, 1000 kPa	825.4 ± 3.3
348.15 K, 2000 kPa	826.7 ± 3.4
348.15 K, 3000 kPa	827.9 ± 3.5
348.15 K, 3100 kPa	828 ± 3.5
348.15 K, 5000 kPa	830.5 ± 3.7
348.15 K, 10000 kPa	836.1 ± 4.3
348.15 K, 15000 kPa	841.3 ± 4.9
348.15 K, 20000 kPa	846.2 ± 5.5
348.15 K, 25000 kPa	850.9 ± 6.1
348.15 K, 30000 kPa	856.6 ± 6.7
348.15 K, 35000 kPa	862.4 ± 7.3
353.15 K, 100 kPa	819.3 ± 3.2
353.15 K, 1000 kPa	820.4 ± 3.3
353.15 K, 2000 kPa	821.7 ± 3.4
353.15 K, 3000 kPa	822.9 ± 3.5
353.15 K, 3100 kPa	823 ± 3.5
353.15 K, 5000 kPa	825.5 ± 3.7
353.15 K, 10000 kPa	831.3 ± 4.3
353.15 K, 15000 kPa	836.7 ± 4.9
353.15 K, 20000 kPa	841.8 ± 5.5
353.15 K, 25000 kPa	846.7 ± 6.1
353.15 K, 30000 kPa	852.5 ± 6.7
353.15 K, 35000 kPa	858.4 ± 7.3
358.15 K, 100 kPa	811.6 ± 3.2
358.15 K, 1000 kPa	813.2 ± 3.3
358.15 K, 2000 kPa	813.9 ± 3.4
358.15 K, 3100 kPa	815.3 ± 3.5
358.15 K, 5000 kPa	817.7 ± 3.8
358.15 K, 10000 kPa	823.6 ± 4.4
358.15 K, 15000 kPa	829.1 ± 5
358.15 K, 20000 kPa	835.5 ± 5.6
363.15 K, 100 kPa	806.1 ± 3.2
363.15 K, 1000 kPa	807.5 ± 3.3
363.15 K, 2000 kPa	808.8 ± 3.4
363.15 K, 3000 kPa	810.1 ± 3.5
363.15 K, 3100 kPa	810.3 ± 3.5
363.15 K, 5000 kPa	812.8 ± 3.8
363.15 K, 10000 kPa	819.2 ± 4.4
363.15 K, 15000 kPa	824.9 ± 5
363.15 K, 20000 kPa	830.4 ± 5.6
368.15 K, 100 kPa	800.3 ± 3.2
368.15 K, 1000 kPa	802.1 ± 3.3
368.15 K, 2000 kPa	803.6 ± 3.4
368.15 K, 3000 kPa	804.8 ± 3.5
368.15 K, 3100 kPa	805 ± 3.5
368.15 K, 5000 kPa	807.7 ± 3.8
368.15 K, 10000 kPa	814.3 ± 4.4
368.15 K, 15000 kPa	820.3 ± 5
368.15 K, 20000 kPa	825.9 ± 5.6
373.15 K, 100 kPa	795.8 ± 3.2
373.15 K, 1000 kPa	797.2 ± 3.3
373.15 K, 2000 kPa	798.7 ± 3.4
373.15 K, 3000 kPa	800.2 ± 3.5
373.15 K, 3100 kPa	800.4 ± 3.5
373.15 K, 5000 kPa	803.1 ± 3.8
373.15 K, 10000 kPa	809.9 ± 4.4
373.15 K, 15000 kPa	815.9 ± 5
373.15 K, 20000 kPa	821.3 ± 5.6
378.15 K, 100 kPa	790.4 ± 3.2
378.15 K, 1000 kPa	791.9 ± 3.3
378.15 K, 2000 kPa	793.7 ± 3.4
378.15 K, 3000 kPa	795.2 ± 3.5
378.15 K, 3100 kPa	795.4 ± 3.6
378.15 K, 5000 kPa	798 ± 3.8
378.15 K, 10000 kPa	804.7 ± 4.4
378.15 K, 15000 kPa	810.8 ± 5
378.15 K, 20000 kPa	817.1 ± 5.6
383.15 K, 100 kPa	785.2 ± 3.2
383.15 K, 1000 kPa	786.7 ± 3.3
383.15 K, 2000 kPa	788.3 ± 3.4
383.15 K, 3000 kPa	789.9 ± 3.6
383.15 K, 3100 kPa	790 ± 3.6
383.15 K, 5000 kPa	792.9 ± 3.8
383.15 K, 10000 kPa	800.1 ± 4.4
383.15 K, 15000 kPa	806.7 ± 5
383.15 K, 20000 kPa	812.8 ± 5.6
388.15 K, 100 kPa	779.9 ± 3.2
388.15 K, 1000 kPa	781.6 ± 3.3
388.15 K, 2000 kPa	783.2 ± 3.5
388.15 K, 3000 kPa	785.2 ± 3.6
388.15 K, 3100 kPa	785.4 ± 3.6
388.15 K, 5000 kPa	788.4 ± 3.8
388.15 K, 10000 kPa	795.8 ± 4.4
388.15 K, 15000 kPa	802.4 ± 5
388.15 K, 20000 kPa	808.6 ± 5.6
393.15 K, 100 kPa	775.2 ± 3.2
393.15 K, 1000 kPa	776.4 ± 3.4
393.15 K, 2000 kPa	778.1 ± 3.5
393.15 K, 3000 kPa	779.5 ± 3.6
393.15 K, 3100 kPa	779.7 ± 3.6
393.15 K, 5000 kPa	782.8 ± 3.8
393.15 K, 10000 kPa	790.6 ± 4.4
393.15 K, 15000 kPa	797.7 ± 5
393.15 K, 20000 kPa	804.2 ± 5.6

Reference: the NIST ThermoML archive (doi:10.1021/je060339m)
